Source: patent EP1978972B1, “USE OF ALKYLGLUCOSIDE ESTERS AS BETA-DEFENSIN INDUCERS” (Pierre Fabre Dermo-Cosmétique, priority 2006, dated 2007)

Key:
LL-37 = experiment: Induction of LL-37 gene expression in skin explant, systemic treatment, quantitative RT-PCR; format: cell-based, human; conditions: 30 µg/ml
From the text: Il est connu de WO 97/45101 que les esters d'α-alkylglucoside peuvent être utilisés comme agent anti-microbien et/ou anti-fongique pour agir en tant que conservateur dans une composition, pour la préserver d'un développement microbien. […]

[1] = tested on: Staphylococcus epidermidis; experiment: Development of endogenous commensal S. epidermidis on skin explant during 24 h after adhesion step; format: cell-based; conditions: systemic treatment, in words
Procedure: Il est par ailleurs possible d'observer la colonisation de l'explant par le germe exogène (S. aureus) après l'étape d'adhésion pendant 24 h. […] L'effet inverse est observé avec le traitement par le TNF-α, cytokine pro-inflammatoire, qui après avoir entraîné une forte chute de l'adhésion de S. aureus (Cf.III.4.2) ne permet pas une limitation de la croissance du germe pathogène sur l'explant et ceci au dépend du germe commensal S. epidermidis.
La figure 12 annexée illustre la comparaison de la colonisation d'une souche contaminante, S. aureus, avec celle d'une souche commensale, S. epidermis.

laurate de butylglucoside [αβ-LBG brut] was tested, and the “FI, LL-37” value (LL-37; 2 h) was 6, the “FI, LL-37” value (LL-37; up to 24 h, in words) was “reste stable jusqu'à 24 h” and the “développement du germe commensal S. epidermidis” value [1] was “favorise à l'inverse le développement d'un germe commensal endogène”.
